{
  "source": "paper PMC10006169",
  "about": "“A phase I trial of LXS196, a protein kinase C (PKC) inhibitor, for metastatic uveal melanoma” (British Journal of Cancer, 2023)",
  "origin": "cited, not measured here",
  "tested_on": "dog",
  "design": "method as in ref 20 = [20]; 20. IDEAYA Biosciences. IDE196 (LXS196, Darovasertib) investigator’s brochure. IDEAYA Biosciences; 2022.",
  "conditions": "cited from earlier work",
  "data": [
    {"smiles": "CC1(N)CCN(c2cccnc2NC(=O)c2nc(-c3ncccc3C(F)(F)F)cnc2N)CC1", "note": "[LXS196]", "values": [
      {"measurement": "Reversibility of findings", "setting": "4-week recovery phase", "value": "partial to complete reversibility"},
      {"measurement": "Potential target organ", "setting": "4-week toxicology study, dog", "value": "GI tract"},
      {"measurement": "Potential toxicity", "setting": "single-dose and 4-week repeated dose, dog", "value": "decrease in systolic blood pressure"}
    ]}
  ]
}
